Laboratory results from patent US20250270217A1, “IMIDAZ0[1,2-A]PYRIMIDINE-5(1 H)-ONES HAVING A COVALENT WARHEAD AT THE 3-POSITION AS WRN INHIBITORS” (Incyte Corporation, priority 2023, published 2025).

What was measured:
[1] = test system: WRN (aa S2-S1235) variants; assay: ATPase activity of WRN mutants (ADP-Glo, DNA stimulated ATPase activity); type: biochemical; settings: for Ratio to WT: Table 10, ATPase activity; for Observed Helicase Activity (AU/min): Table 10, ATPase activity of WRN mutants
Method: (§1) Point mutations were made in the His-tagged WRN construct used for biochemical characterization (aa S2-S1235). Cysteine 580 (Walker A motif), 727 (linker), 864 (Domain 2A) and 1041 (RQC domain) were each mutated to both Serine and Alanine using site directed mutagenesis, for a total of eight mutants. Purified proteins were assayed in both helicase and ATPase assays. Cys580 mutation to either Ser or Ala abolished all activity, consistent with Walker A motif cysteine function. Cys864 (D2) mutation to alanine and Cys1041 (RQC domain) had no significant impact on helicase or ATPase activity. Cys727 abolished helicase activity (Table 9), whether it was mutated to Ala or Ser. ATPase activity for Cys727 mutants was reduced but not abolished (Table 10). Table 9 is the panel of the nine variant WRN helicase proteins that were screen using a flourscence-based DNA unwinding assay with an increase in flourscence intensity indicating DNA unwinding. Table 10 is the panel of the nine variant WRN helicase proteins that were screened using ADP-Glo assay to measure DNA stimulated ATPase activity, with an increase in luminescence indicating ATP hydrolysis.

[2] = test system: WRN (aa S2-S1235) variants; assay: Helicase activity of WRN mutants (fluorescence-based DNA unwinding assay); type: biochemical; settings: for Ratio to WT: Table 9, helicase activity; for Observed Helicase Activity (AU/min): Table 9, helicase activity of WRN mutants
Method: as §1

| Ratio to WT [1] | Ratio to WT [2] | Substance | Observed Helicase Activity (AU/min) [1] [AU/min] | Observed Helicase Activity (AU/min) [2] [AU/min] |
| --- | --- | --- | --- | --- |
| 0.01 | 0.00 | 2. C580S: His-tagged WRN construct (aa S2-S1235), Cysteine 580 (Walker A motif) mutated to Serine | 0.8014 | 0 |
| 0.59 | 0.62 | 8. C1041S: His-tagged WRN construct (aa S2-S1235), Cysteine 1041 (RQC domain) mutated to Serine | 45.74 | 40.28 |
| 0.29 | 0.07 | 3. C727A: His-tagged WRN construct (aa S2-S1235), Cysteine 727 (linker) mutated to Alanine | 22.65 | 4.619 |
| 0.85 | 0.93 | 7. C1041A: His-tagged WRN construct (aa S2-S1235), Cysteine 1041 (RQC domain) mutated to Alanine | 66.66 | 60.14 |
| 0.54 | 0.44 | 6. C864S: His-tagged WRN construct (aa S2-S1235), Cysteine 864 (Domain 2A) mutated to Serine | 42.02 | 28.49 |
| 0.03 | 0.02 | 1. C580A: His-tagged WRN construct (aa S2-S1235), Cysteine 580 (Walker A motif) mutated to Alanine | 2.548 | 1.04 |
| 0.90 | 0.94 | 5. C864A: His-tagged WRN construct (aa S2-S1235), Cysteine 864 (Domain 2A) mutated to Alanine | 70.52 | 60.75 |
